Test results: ChEMBL document CHEMBL1250483, “Three-dimensional quantitative structure-activity relationship CoMSIA/CoMFA and LeapFrog studies on novel series of bicyclo [4.1.0] heptanes derivatives as melanin-concentrating hormone receptor R1 antagonists” (Eur J Med Chem, 2010)

What follows are molecules tested against Melanin-concentrating hormone receptor 1 (Homo sapiens, UniProt Q99705) (assay: Antagonist activity at MCH1 receptor).
Assay type: functional

Chain of Melanin-concentrating hormone receptor 1 (Q99705 whole entry): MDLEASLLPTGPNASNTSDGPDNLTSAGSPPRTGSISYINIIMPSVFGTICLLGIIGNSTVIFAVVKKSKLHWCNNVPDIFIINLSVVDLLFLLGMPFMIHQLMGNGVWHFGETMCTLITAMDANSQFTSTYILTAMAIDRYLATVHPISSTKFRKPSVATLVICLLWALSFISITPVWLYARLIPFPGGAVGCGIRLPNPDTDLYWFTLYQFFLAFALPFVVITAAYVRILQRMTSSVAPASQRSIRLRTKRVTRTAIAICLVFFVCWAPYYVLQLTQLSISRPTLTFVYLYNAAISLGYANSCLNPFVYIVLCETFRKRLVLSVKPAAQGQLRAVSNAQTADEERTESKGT

`COC1CCN(CCN(C(=O)Nc2ccc(F)c(Cl)c2)C2CC[C@]3(c4cccc(C#N)c4)CC3C2)CC1` (stereo partly drawn) and `N#Cc1cccc([C@]23CCC(N(CCN4CCOCC4)C(=O)Nc4ccc(F)c(Cl)c4)CC2C3)c1` (stereo partly drawn) are within 1.5-fold of each other in Ki: 0.015 µM for the first, 0.011 µM for the second.

`N#Cc1cccc([C@]23CCC(N(CCN4CC[C@@H](O)C4)C(=O)Nc4ccc(OCOc5ccccc5)c(OCOc5ccccc5)c4)CC2C3)c1` (stereo partly drawn) and `N#Cc1cccc([C@]23CCC(N(CCN4CC[C@@H](O)C4)C(=O)Nc4ccccc4)CC2C3)c1` (stereo partly drawn) are within 1.5-fold of each other in Ki: 0.134 µM for the first, 0.132 µM for the second.

Compared with `CC(C)N(CCN(C(=O)Nc1ccc(F)c(Cl)c1)C1CC[C@]2(c3cccc(CN4CCN(C)CC4)c3)CC2C1)C(C)C` (stereo partly drawn), `CC(C)N(CCN(C(=O)Nc1ccc(F)c(Cl)c1)C1CC[C@]2(c3cccc(CN4CC[C@H](O)C4)c3)CC2C1)C(C)C` (stereo partly drawn) is 2.6-fold lower in Ki: 0.054 µM for the first, 0.021 µM for the second.

Going from `CS(=O)(=O)N1CCC(CCN(C(=O)Nc2ccc(F)c(C(F)(F)F)c2)C2CC[C@]3(c4cccc(C#N)c4)CC3C2)CC1` (stereo partly drawn) to `CS(=O)(=O)N1CCC(CN(C(=O)Nc2ccc(F)c(C(F)(F)F)c2)C2CC[C@]3(c4cccc(C#N)c4)CC3C2)CC1` (stereo partly drawn), the Ki falls from 0.08 µM to 0.026 µM (3.1-fold).

Compared with `CS(=O)(=O)N1CCC(CN(C(=O)Nc2cc(Cl)nc(Cl)c2)C2CC[C@]3(c4cccc(CN5CC[C@H](O)C5)c4)CC3C2)CC1` (stereo partly drawn), `CN(C)Cc1cccc([C@]23CCC(N(CC4CCN(S(C)(=O)=O)CC4)C(=O)Nc4cc(Cl)nc(Cl)c4)CC2C3)c1` (stereo partly drawn) is 2.7-fold lower in Ki: 0.00889 µM for the first, 0.0033 µM for the second.

First: COc1cccc(NC(=O)N(CCN2CC[C@@H](O)C2)C2CC[C@]3(c4cccc(C#N)c4)CC3C2)c1 (stereo partly drawn)
Second: N#Cc1cccc([C@]23CCC(N(CCN4CC[C@@H](O)C4)C(=O)Nc4cccc(Br)c4)CC2C3)c1 (stereo partly drawn)
The Ki of the first is 11-fold higher: 0.373 µM for the first, 0.034 µM for the second.

First: N#Cc1cccc([C@]23CCC(N(CCN4CC[C@@H](O)C4)C(=O)Nc4ccc(F)cc4)CC2C3)c1 (stereo partly drawn)
Second: N#Cc1cccc([C@]23CCC(N(CCN4CC[C@@H](O)C4)C(=O)Nc4cccc(F)c4)CC2C3)c1 (stereo partly drawn)
The Ki of the first is 2.7-fold higher: 0.054 µM for the first, 0.02 µM for the second.

Going from `CC(C)N(CCN(C(=O)Nc1ccc(F)c(Cl)c1)C1CC[C@]2(c3cccc(CNS(C)(=O)=O)c3)CC2C1)C(C)C` (stereo partly drawn) to `CC(=O)NCc1cccc([C@]23CCC(N(CCN(C(C)C)C(C)C)C(=O)Nc4ccc(F)c(Cl)c4)CC2C3)c1` (stereo partly drawn), the Ki rises from 0.018 µM to 0.031 µM (1.7-fold).

`N#Cc1cccc([C@]23CCC(N(CCN4CC[C@@H](O)C4)C(=O)Nc4cc(F)cc(F)c4)CC2C3)c1` (stereo partly drawn) and `N#Cc1cccc([C@]23CCC(N(CCN4CC[C@@H](O)C4)C(=O)Nc4ccc(F)c(F)c4)CC2C3)c1` (stereo partly drawn) are within 1.5-fold of each other in Ki: 0.015 µM for the first, 0.02 µM for the second.

`CS(=O)(=O)N1CCC(CN(C(=O)Nc2cccc(F)c2)C2CC[C@]3(c4cccc(C#N)c4)CC3C2)CC1` (stereo partly drawn) and `CS(=O)(=O)N1CCC(CN(C(=O)Nc2ccc(F)c(Cl)c2)C2CC[C@]3(c4cccc(C#N)c4)CC3C2)CC1` (stereo partly drawn) are within 1.5-fold of each other in Ki: 0.00971 µM for the first, 0.00719 µM for the second.

First: Cc1ccc(NC(=O)N(CCN2CC[C@@H](O)C2)C2CC[C@]3(c4cccc(C#N)c4)CC3C2)cc1F (stereo partly drawn)
Second: N#Cc1cccc([C@]23CCC(N(CCN4CCCC(O)C4)C(=O)Nc4ccc(F)c(Cl)c4)CC2C3)c1 (stereo partly drawn)
The Ki of the first is 2.2-fold higher: 0.048 µM for the first, 0.022 µM for the second.

First: N#Cc1cccc([C@]23CCC(N(CCN4CC[C@@H](O)C4)C(=O)Nc4cccc([N+](=O)[O-])c4)CC2C3)c1 (stereo partly drawn)
Second: N#Cc1cccc([C@]23CCC(N(CCN4CC[C@@H](O)C4)C(=O)Nc4cccc(Cl)c4)CC2C3)c1 (stereo partly drawn)
The Ki of the first is 2.2-fold higher: 0.06 µM for the first, 0.027 µM for the second.

Compared with `CCN(CC)Cc1cccc([C@]23CCC(N(CCN(C(C)C)C(C)C)C(=O)Nc4ccc(F)c(Cl)c4)CC2C3)c1` (stereo partly drawn), `CC(C)N(CCN(C(=O)Nc1ccc(F)c(Cl)c1)C1CC[C@]2(c3cccc(CN(C)C)c3)CC2C1)C(C)C` (stereo partly drawn) is 3.5-fold lower in Ki: 0.046 µM for the first, 0.013 µM for the second. The second binds more tightly here.

`CS(=O)(=O)N1CCCCC1CN(C(=O)Nc1ccc(F)c(Cl)c1)C1CC[C@]2(c3cccc(C#N)c3)CC2C1` (stereo partly drawn) and `CS(=O)(=O)N1CCCC(CN(C(=O)Nc2ccc(F)c(Cl)c2)C2CC[C@]3(c4cccc(C#N)c4)CC3C2)C1` (stereo partly drawn) are within 1.5-fold of each other in Ki: 0.295 µM for the first, 0.211 µM for the second.

Going from `N#Cc1cccc(NC(=O)N(CCN2CC[C@@H](O)C2)C2CC[C@]3(c4cccc(C#N)c4)CC3C2)c1` (stereo partly drawn) to `CC(C)N(CCN(C(=O)Nc1cccc(C#N)c1)C1CC[C@]2(c3cccc(C#N)c3)CC2C1)C(C)C` (stereo partly drawn), the Ki falls from 0.092 µM to 0.0076 µM (12-fold). The second binds more tightly here.

Going from `CC(C)N(CCN(C(=O)Nc1ccc(F)c(Cl)c1)C1CC[C@]2(c3cccc(C#N)c3)CC2C1)C(C)C` (stereo partly drawn) to `CC(C)N(CCN(C(=O)Nc1ccc(F)c(Cl)c1)C1CC[C@]2(c3cccc(C#N)c3)CC2C1)[C@H](C)CO` (stereo partly drawn), the Ki rises from 0.00498 µM to 0.0094 µM (1.9-fold).

`CC(C)N(CCO)CCN(C(=O)Nc1ccc(F)c(Cl)c1)C1CC[C@]2(c3cccc(C#N)c3)CC2C1` (stereo partly drawn) and `CC(C)N(CCF)CCN(C(=O)Nc1ccc(F)c(Cl)c1)C1CC[C@]2(c3cccc(C#N)c3)CC2C1` (stereo partly drawn) are within 1.5-fold of each other in Ki: 0.00871 µM for the first, 0.012 µM for the second.

First: CN(C)Cc1cccc([C@]23CCC(N(CC4CCN(S(C)(=O)=O)CC4)C(=O)Nc4ccc(F)c(Cl)c4)CC2C3)c1 (stereo partly drawn)
Second: CS(=O)(=O)N1CCC(CN(C(=O)Nc2ccc(F)c(F)c2)C2CC[C@]3(c4cccc(C#N)c4)CC3C2)CC1 (stereo partly drawn)
The Ki of the first is 2.8-fold higher: 0.015 µM for the first, 0.0054 µM for the second. The second binds more tightly here.

First: CC(C)N(CCN(C(=O)Nc1cccc([N+](=O)[O-])c1)C1CC[C@]2(c3cccc(C#N)c3)CC2C1)C(C)C (stereo partly drawn)
Second: CC(C)N(CCN(C(=O)Nc1cccc(Br)c1)C1CC[C@]2(c3cccc(C#N)c3)CC2C1)C(C)C (stereo partly drawn)
The Ki of the first is 2.1-fold lower: 0.0027 µM for the first, 0.0057 µM for the second.

Compared with `CC(C)N(CCN(C(=O)Nc1ccc(F)c(Cl)c1)C1CC[C@]2(c3cccc(C#N)c3)CC2C1)[C@@H](C)CO` (stereo partly drawn), `CC(C)N(CCN(C(=O)Nc1ccc(F)c(Cl)c1)C1CC[C@]2(c3cccc(CO)c3)CC2C1)C(C)C` (stereo partly drawn) is 9.2-fold higher in Ki: 0.0052 µM for the first, 0.048 µM for the second. The first binds more tightly here.

First: CC(C)N(CCN(C(=O)Nc1cccc(F)c1)C1CC[C@]2(c3cccc(C#N)c3)CC2C1)C(C)C (stereo partly drawn)
Second: CC(C)N(CCN(C(=O)Nc1cccc(Cl)c1)C1CC[C@]2(c3cccc(C#N)c3)CC2C1)C(C)C (stereo partly drawn)
The Ki of the first is 2.9-fold lower: 0.0021 µM for the first, 0.006 µM for the second.

`CC(C)N(CCN(C(=O)Nc1cc(Cl)nc(Cl)c1)C1CC[C@]2(c3cccc(C#N)c3)CC2C1)C(C)C` (stereo partly drawn) and `CC(C)N(CCN(C(=O)Nc1cc(Cl)nc(Cl)c1)C1CC[C@]2(c3cccc(C#N)c3)CC2C1)[C@@H](C)CO` (stereo partly drawn) are within 1.5-fold of each other in Ki: 0.0024 µM for the first, 0.0016 µM for the second.

First: CC(C)N(CCN(C(=O)Nc1cc(F)cc(F)c1)C1CC[C@]2(c3cccc(C#N)c3)CC2C1)C(C)C (stereo partly drawn)
Second: CC(C)N(CCN(C(=O)Nc1ccc(F)cc1)C1CC[C@]2(c3cccc(C#N)c3)CC2C1)C(C)C (stereo partly drawn)
The Ki of the first is 2.3-fold lower: 0.0045 µM for the first, 0.0104 µM for the second.

`CC(C)N(CCO)CCN(C(=O)Nc1cc(Cl)nc(Cl)c1)C1CC[C@]2(c3cccc(C#N)c3)CC2C1` (stereo partly drawn) and `CC(C)NCCN(C(=O)Nc1cc(Cl)nc(Cl)c1)C1CC[C@]2(c3cccc(C#N)c3)CC2C1` (stereo partly drawn) are within 1.5-fold of each other in Ki: 0.0016 µM for the first, 0.0019 µM for the second.

Compared with `CC1CCC(C2=CCC(N(CCN3CCCC3)C(=O)Nc3ccc(F)c(Cl)c3)CC2)S1` (stereo not drawn), `CC(=O)C1CCC(C2=CCC(N(CCN3CCCC3)C(=O)Nc3ccc(F)c(Cl)c3)CC2)S1` (stereo not drawn) is 2.7-fold lower in Ki: 0.0849 µM for the first, 0.031 µM for the second. The second binds more tightly here.

Going from `N#Cc1cccc([C@]23CCC(N(CCNCCF)C(=O)Nc4cc(Cl)nc(Cl)c4)CC2C3)c1` (stereo partly drawn) to `CC1CC[C@@H](CO)N1CCN(C(=O)Nc1cc(Cl)nc(Cl)c1)C1CC[C@]2(c3cccc(C#N)c3)CC2C1` (stereo partly drawn), the Ki falls from 0.0044 µM to 0.0012 µM (3.7-fold). The second binds more tightly here.

Compared with `CC(=O)C1CCCN1CCN(C(=O)Nc1ccc(F)c(Cl)c1)C1CC[C@]2(c3cccc(C#N)c3)CC2C1` (stereo partly drawn), `CC(=O)N1CCC(CN(C(=O)Nc2ccc(F)c(Cl)c2)C2CC[C@]3(c4cccc(C#N)c4)CC3C2)CC1` (stereo partly drawn) is 14-fold higher in Ki: 0.023 µM for the first, 0.312 µM for the second.

`CC1CC[C@@H](CO)N1CCN(C(=O)Nc1ccc(F)c(Cl)c1)C1CC[C@]2(c3cccc(C#N)c3)CC2C1` (stereo partly drawn) and `N#Cc1cccc([C@]23CCC(N(CCN4CCCCCC4)C(=O)Nc4ccc(F)c(Cl)c4)CC2C3)c1` (stereo partly drawn) are within 1.5-fold of each other in Ki: 0.011 µM for the first, 0.015 µM for the second.

`C[N+]1(CCN(C(=O)Nc2ccc(F)c(Cl)c2)C2CC[C@]3(c4cccc(C#N)c4)CC3C2)CCCC1` (stereo partly drawn) and `C[N+]1(CCN(C(=O)Nc2ccc(F)c(Cl)c2)C2CC[C@]3(c4cccc(C#N)c4)CC3C2)CCCCC1` (stereo partly drawn) are within 1.5-fold of each other in Ki: 0.016 µM for the first, 0.015 µM for the second.

First: CNC(=O)N1CCC(CN(C(=O)Nc2ccc(F)c(C(F)(F)F)c2)C2CC[C@]3(c4cccc(C#N)c4)CC3C2)CC1 (stereo partly drawn)
Second: CCS(=O)(=O)N1CCC(CN(C(=O)Nc2ccc(F)c(F)c2)C2CC[C@]3(c4cccc(C#N)c4)CC3C2)CC1 (stereo partly drawn)
The Ki of the first is 8.6-fold higher: 0.181 µM for the first, 0.021 µM for the second.

Compared with `CC(C)N(CCN(C(=O)Nc1ccc(F)c(F)c1)C1CC[C@]2(c3cccc(Br)c3)CC2C1)C(C)C` (stereo partly drawn), `CO/N=C/c1cccc([C@]23CCC(N(CCN(C(C)C)C(C)C)C(=O)Nc4ccc(F)c(Cl)c4)CC2C3)c1` (stereo partly drawn) is 1.9-fold lower in Ki: 0.00776 µM for the first, 0.0041 µM for the second.

`CCO/N=C/c1cccc([C@]23CCC(N(CCN(C(C)C)C(C)C)C(=O)Nc4ccc(F)c(Cl)c4)CC2C3)c1` (stereo partly drawn) gave a Ki of 0.029 µM.
